From patent US4663332A, “5-substituted N-alkylated tetrazoles” (Hoffman-La Roche Inc., priority 1985, dated 1987)

Tests used:
[1] = target: T1, PAF binding to dog platelets (Canis lupus familiaris, UniProt A0A8I3NSH0); test: PAF Radioreceptor Binding Assay (PAF Binding); settings: inhibition of 3H-PAF binding to dog platelets, 10 min, room temperature
T1 construct: from tissue; host or cells: washed platelets from citrate-treated dog blood
T1 sequence (A0A8I3NSH0 1-343): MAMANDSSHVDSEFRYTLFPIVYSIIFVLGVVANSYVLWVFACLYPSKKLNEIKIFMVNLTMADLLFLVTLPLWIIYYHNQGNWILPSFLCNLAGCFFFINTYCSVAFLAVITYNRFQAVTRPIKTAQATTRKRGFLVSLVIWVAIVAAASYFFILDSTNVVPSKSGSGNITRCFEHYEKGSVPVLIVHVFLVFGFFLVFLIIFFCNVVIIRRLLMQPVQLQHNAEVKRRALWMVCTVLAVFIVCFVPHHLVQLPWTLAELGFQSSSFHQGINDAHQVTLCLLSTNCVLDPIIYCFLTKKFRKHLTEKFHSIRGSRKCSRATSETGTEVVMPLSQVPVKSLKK
Description: (1) PAF Radioreceptor Binding Assay (PAF Binding)
Platelet rich plasma is prepared by centrifugation of citrate-treated dog blood. Acidification to pH 6.5 with 0.15M citric acid and centrifugation for 10 minutes at 1000×g yields a platelet pellet which is then washed by resuspension in EDTA-Phosphate Buffered Saline (PBS) and recentrifuged. The washed platelet preparation is adjusted to 2×10^7 platelets/50 μl in 0.1% bovine serum albumin-PBS.
To a 400 μl microfuge tube containing 50 μl silicone oil (specific gravity 1.023) is added buffer, PAF standard or analog, or an extract to bring the aqueous volume to 150 μl. 50 μl of ^3 H-PAF (10,000 cpm, 45 Ci/mM) is added followed by 2×10^7 dog platelets. After mixing, incubating for 10 minutes at room temperature, and centrifuging for 1 minute in a Beckman Microfuge B (8000×g), the pellet is removed by clipping off the tip of the tube, the platelets are solubilized with 200 μl of 50% methanol and counted in 10 ml of Aquasol. […] Results obtained with representative copounds of the present invention in this assay are summarized hereinafter in Tables I and II. IC50 is drug concentration (μMolar) which inhibits PAF binding to dog platelets by 50%.

TXA2 synthase = target: T2, TXA2 synthase (Homo sapiens, UniProt P24557); test: Thromboxane Synthase Inhibition, In Vitro (TXA2 Synth. Inhib.); format: biochemical; settings: human platelet microsomes, 10 μM 14C-PGH2, 22° C., 2 min
T2 construct: using microsomal fractions from human platelets as enzyme source; from tissue; host or cells: microsomal fractions from human platelets
T2 sequence (P24557 1-533): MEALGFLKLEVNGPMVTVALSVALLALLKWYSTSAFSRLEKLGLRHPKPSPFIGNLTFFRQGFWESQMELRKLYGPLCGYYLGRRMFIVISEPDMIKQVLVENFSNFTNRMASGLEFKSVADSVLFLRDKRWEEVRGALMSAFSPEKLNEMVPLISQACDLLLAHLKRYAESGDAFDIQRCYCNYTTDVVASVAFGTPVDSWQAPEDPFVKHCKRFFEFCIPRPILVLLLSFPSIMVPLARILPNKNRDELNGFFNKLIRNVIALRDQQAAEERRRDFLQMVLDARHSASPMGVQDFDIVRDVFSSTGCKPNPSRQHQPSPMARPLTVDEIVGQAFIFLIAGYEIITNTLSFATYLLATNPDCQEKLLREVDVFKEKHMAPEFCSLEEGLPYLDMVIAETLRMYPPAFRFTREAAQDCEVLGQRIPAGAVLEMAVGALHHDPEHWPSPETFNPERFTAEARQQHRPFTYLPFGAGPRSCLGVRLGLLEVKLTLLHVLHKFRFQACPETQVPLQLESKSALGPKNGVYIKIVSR
Description: (2) Thromboxane Synthase Inhibition, In Vitro (TXA2 Synth. Inhib.)
TXA2 synthase activity is measured by following the conversion of ^14 C-prostaglandin endoperoxide (PGH2) to ^14 C-thromboxane A2 (TXA2) using microsomal fractions from human platelets as enzyme source. In the aqueous incubation medium, the TXA2 decomposes rapidly into TXB2. The amount of TXA2 synthase is adjusted so that under the conditions of the assay approximately 80-90% of the substrate, PGH2, is converted to product in control tubes. To prepare ^14 C-PGH2, ^14 C-AA (50-60 mCi/mmole; Rose Chem.) is incubated with sheep seminal vesicular gland microsomes for 1.5 minutes at 37° C. and then the ^14 C-PGH2 is extracted with diethylether, purified on columns oof Sephadex LH-20 or silicic acid, and stored in acetone at -70° C. Incubations are done as follows. Sufficient ^14 C-PGH2 to yield a final substrate concentration of 10 μM (30,000 cpm) is added to the incubation tubes and then the acetone is removed under nitrogen. The tubes are placed in an ice bath and then 215 μl of ice cold phosphate buffered saline, 10 μl of ethanol (control) or of test drug in ethanol, and 25 μl of the microsomal suspension are added with mixing in that order as rapidly as possible. The tubes are incubated at 22° C. for 2 minutes, the reaction is stopped and then the radioactive products and the unconverted PGH2 are extracted and analyzed by thin layer chromatography. […] The amount of ^14 C-PGH2 converted to products was used as a measure of TXA2 synthase activity. Inhibitors were tested initially at a final concentration 100 μM. Results obtained with representative compounds of the present invention in this assay are summarized hereafter in Tables I and II. IC50 is the drug concentration (μMolar) which inhibits TXA2 activity by 50%.

PAF [2] = test: Inhibition of PAF Induced Guinea Pig Bronchoconstriction Test (Inhib. of PAF Broncho.); format: in vivo, guinea pig (Hartley strain); settings: Cavia porcellus, iv; 1 mg/kg i.v. (1 min. pretreat)
Description: (3) Inhibition of PAF Induced Guinea Pig Bronchoconstriction Test (Inhib. of PAF Broncho.)
Male guinea pigs (Hartley strain) weighing 300 to 500 g are anesthetized with urethane (2 g/kg) intraperitoneally and a polyethylene cannula is inserted into the jugular vein for drug administration. Tracheal pressure is recorded from a cannula inserted in the trachea and connected to a Statham pressure transducer. Propranolol (0.1 mg/kg) is administered intravenously five minutes before challenge with synthetic PAF, the animal's skeletal muscles are then paralyzed with succinylcholine (1.2 mg/kg i.v.), and the animal is respirated using a Harvard small animal respirator operating at 40 breaths/min and 2.5 cc stroke volume. Under these conditions PAF induces a dose-dependent increase in ventilatory pressure over a dose range of 0.5 to 5 μg/kg i.v. For screening purposes animals are challenged with a single dose of PAF (10 μg/kg i.v.).
The peak increase in ventilatory pressure (cm H2 O) is recorded for three control animals and five drug-treated animals and the percent inhibition determined from the following formula [formula] Results obtained with representative compounds of the invention in this test are summarized hereinafter in Tables I and II.

PAF [3] = test: Inhibition of PAF-Induced Platelet Aggregation (Inhib. of PAF Platelet Reduction); format: in vivo, guinea pig; settings: Cavia porcellus, iv, 3 mg/kg i.v.
Description: (5) Inhibition of PAF-Induced Platelet Aggregation (Inhib. of PAF Platelet Reduction)
Guinea pigs (anesthetized) are set up to withdraw blood for platelet counting. The animal is allowed to stabilize after completion of surgical procedures. The carotid catheter is allowed to bleed back blood and then is filled, prior to each sample withdrawal with sodium citrate 3.8% (0.15 ml). Blood (0.25 ml) is withdrawn 30 seconds prior to the PAF challenge and at 15, 30 and 60 seconds after the PAF challenge. This first PAF challenge is used as the control, assuming sufficient decreases in platelet count are observed. The amount of PAF used will be approximately 50 ng/kg, however, this can be increased to achieve the desired decreases in platelet count. Fifteen minutes after the control PAF challenge, intravenous drug dosing begins, with animals being dosed at 30 minute intervals; PAF challenge follows 15 minutes after each intravenous dose. Three intravenous drug doses are used in each experiment. Initial drug doses are 1, 3 and 10 mg/kg i.v. Inhibition of PAF platelet reduction at 3 mg/kg i.v. for representative compounds of the invention are summarized hereinafter in Tables I and II. Percent inhibition is [formula]

SMILES | IC50 [1] | IC50 (TXA2 synthase) | inhibition in vivo at 1 mg/kg (PAF [2]) | inhibition in vivo at 3 mg/kg (PAF [3])
CCCc1c(OCCCCCc2nnnn2CCCc2cccnc2)ccc(C(C)=O)c1O [H H 5 3 3-pyridyl, 1-[2-hydroxy-3-propyl-4-[5-[1-[3-(3-pyridinyl)propyl]-1H-tetrazol-5-yl]pentyloxy]phenyl]ethanone] | 150 nM | 100 to 1000 nM | 96 ± 1% | 12%
CCCc1c(OCCCCc2nnn(CCc3cccnc3)n2)ccc(C(C)=O)c1O [4 2 3-pyridyl, 1-[2-Hydroxy-3-propyl-4-[4-[2-[2-(3-pyridinyl)ethyl]-2H-tetrazol-5-yl]butoxy]phenyl]ethanone] | > 1000 nM | – | – | –
CCCc1c(OCCCCc2nnn(CCCn3ccnc3)n2)ccc(C(C)=O)c1O [4 3 1-imidazolyl, 1-[2-Hydroxy-3-propyl-4-[4-[2-[3-(1H-imidazol-1-yl)propyl]-2H-tetrazol-5-yl]butoxy]phenyl]-ethanone] | > 1000 nM | – | 30 ± 15% | –
CCCc1c(OCc2cccc(-c3nnnn3CCCc3cccnc3)c2)ccc(C(C)=O)c1O [1-[2-hydroxy-3-propyl-4-[[3-[1-[3-(3-pyridinyl)propyl]-1H-tetrazol-5-yl]phenyl]methoxy]phenyl]ethanone] | 200 nM | 1000 nM | – | –
CCCc1c(OCCCCCc2nnn(Cc3cccnc3)n2)ccc(C(C)=O)c1O [5 1 3-pyridyl] | > 1000 nM | – | – | –
CCCc1c(O)c(C(C)=O)cc(Cl)c1OCc1cccc(-c2nnnn2CCCc2cccnc2)c1 [1-[5-chloro-2-hydroxy-3-propyl-4-[[3-[1-[3-(3-pyridinyl)propyl]-1H-tetrazol-5-yl]phenyl]methoxy]phenyl]ethanone] | 25 nM | – | 43 ± 21% | 25%
CCCc1c(OCCCc2nnn(CCCCc3cccnc3)n2)ccc(C(C)=O)c1O [3 4 3-pyridyl, 1-[2-Hydroxy-3-propyl-4-[3-[2-[4-(3-pyridinyl)butyl]-2H-tetrazol-5-yl]propoxy]phenyl]ethanone] | 1000 nM | – | 38 ± 14% | –
CCCc1c(O)c(C(C)=O)cc(Cl)c1OCCCCCc1nnnn1CCCCc1cccnc1 [Cl H 5 4 3-pyridyl, 1-[5-chloro-2-hydroxy-3-propyl-4-[5-[1-[4-(3-pyridinyl)butyl]-1H-tetrazol-5-yl]pentyloxy]phenyl]ethanone] | 140 nM | 1000 nM | – | 7%
CCCc1c(OCCCCc2nnnn2CCc2cccnc2)ccc(C(C)=O)c1O [H H 4 2 3-pyridyl, 1-[2-Hydroxy-3-propyl-4-[4-[1-[2-(3-pyridinyl)ethyl]-1H-tetrazol-5-yl]butoxy]phenyl]ethanone] | 1000 nM | – | -15 ± 6% | 48%
CCCc1c(OCCCCc2nnn(CCCc3cccnc3)n2)ccc(C(C)=O)c1O [4 3 3-pyridyl, 1-[2-Hydroxy-3-propyl-4-[4-[2-[3-(3-pyridinyl)propyl]-2H-tetrazol-5-yl]butoxy]phenyl]ethanone] | > 1000 nM | – | 55 ± 9% | –
CCCc1c(OCCCCCc2nnn(CCCc3cccnc3)n2)ccc(C(C)=O)c1O [5 3 3-pyridyl, 1-[2-Hydroxy-3-propyl-4-[5-[2-[3-(3-pyridinyl)propyl]-2H-tetrazol-5-yl]pentyloxy]phenyl]ethanone] | > 1000 nM | 100 to 1000 nM | 38 ± 11% | –
CCCc1c(OCCCCCc2nnnn2Cc2cccnc2)ccc(C(C)=O)c1O [H H 5 1 3-pyridyl, 1-[2-Hydroxy-3-propyl-4-[5-[1-(3-pyridinyl)methyl-1H-tetrazol-5-yl]-pentyloxy]phenyl]ethanone] | 800 nM | – | – | –
CCCc1c(OCCCCCc2nnn(CCCCc3cccnc3)n2)ccc(C(C)=O)c1O [5 4 3-pyridyl, 1-[2-Hydroxy-3-propyl-4-[5-[2-[4-(3-pyridinyl)butyl]-2H-tetrazol-5-yl]pentyloxy]phenyl]ethanone] | 480 nM | 100 to 1000 nM | 94 ± 6% | –
CCCc1c(OCCCc2nnnn2CCCc2cccnc2)ccc(C(C)=O)c1O [H H 3 3 3-pyridyl, 1-[2-Hydroxy-3-propyl-4-[3-[1-[3-(3-pyridinyl)propyl]-1H-tetrazol-5-yl]propoxy]phenyl]ethanone] | 250 nM | 10 to 100 nM | 53 ± 17% | –
CCCc1c(OCCCc2nnn(CCCc3cccnc3)n2)ccc(C(C)=O)c1O [3 3 3-pyridyl, 1-[2-hydroxy-3-propyl-4-[3-[2-[3-(3-pyridinyl)propyl]-2H-tetrazol-5-yl]propoxy]phenyl]ethanone] | > 1000 nM | – | 13 ± 7% | –
